We go through 1 compound from US20120251595A1, “EMULSION TEMPLATE METHOD TO FORM SMALL PARTICLES OF HYDROPHOBIC AGENTS WITH SURFACE ENRICHED HYDROPHILICITY BY ULTRA RAPID FREEZING” (BOARD OF REGENTS, THE UNIVERSITY OF TEXAS SYSTEM, priority 2009, published 2012).

Data set [1] in a line: X-ray photoelectron spectroscopy (XPS) of particle surface composition. The class given is physicochemical. As to the method: […]
Powders containing ITZ were prepared according to procedures outlined in Examples 1, 2, 3, and 4 with the same formulations. The elemental composition of the particle surfaces was determined using X-ray photoelectron spectroscopy (XPS). […] Percent surface excess of ITZ was calculated by deducting 50% from the percent surface compositions of ITZ while percent surface excess of lecithin was calculated by deducting 25% from the percent surface compositions of lecithin. […]

For data set [2] the following is noted: cited from earlier work.
Data set [3] in a line: Solubility and pKa of itraconazole. Format: physicochemical. The note with it: pH 1.2 dissolution media, simulated gastric fluid, thermodynamic from solid, crystalline ITZ, read-out: Equilibrium solubility Ceq. An excerpt: This study compares the effectiveness of fine emulsion templating and co-solvent approaches with the URF process to enhance the wetting and solubility of the model drug, itraconazole (ITZ). Itraconazole (ITZ) is a weakly basic broad-spectrum triazole antifungal agent indicated in the treatment of both local and systemic fungal infections; however, successful treatment of infections is often complicated by its low aqueous solubility resulting in variable absorption and plasma concentration. Classified as a BCS class II compound, ITZ has a strongly pH dependent solubility (pKa˜3.7) with reported solubilities in acidic and neutral media of approximately 4 μg/mL and 1 ng/mL, respectively. While limited by poor aqueous solubility, the highly lipophilic nature of the compound allows for high permeability of intestinal membranes. […]

Converted amounts (≈) assume the structure as drawn.

By pKa is commonly meant the pH at which an ionisable group is half protonated. On to `CCC(C)n1ncn(-c2ccc(N3CCN(c4ccc(OCC5COC(Cn6cncn6)(c6ccc(Cl)cc6Cl)O5)cc4)CC3)cc2)c1=O` (stereo not shown) [ITZ, itraconazole], for which, in data set [1], the “Mass Concentration Chlorine, SOL” value was found to be 9.54% and the “Surface composition ITZ, SOL” value was determined as 100.0%. In addition, the pKa in data set [2] was around 3.7. In data set [3], the solubility thermodynamic was 5 µg/mL (≈ 7.09 µM).
